Measured values from ChEMBL document CHEMBL1134781, “1,2-Benzothiazine 1,1-dioxide P(2)-P(3) peptide mimetic aldehyde calpain I inhibitors” (J Med Chem, 2001).

What was measured:
[1] = target: T1, Calpain-1 catalytic subunit (Homo sapiens, UniProt P07384); experiment: (§1) Inhibitory activity towards human calpain I
T1 sequence (P07384 whole entry): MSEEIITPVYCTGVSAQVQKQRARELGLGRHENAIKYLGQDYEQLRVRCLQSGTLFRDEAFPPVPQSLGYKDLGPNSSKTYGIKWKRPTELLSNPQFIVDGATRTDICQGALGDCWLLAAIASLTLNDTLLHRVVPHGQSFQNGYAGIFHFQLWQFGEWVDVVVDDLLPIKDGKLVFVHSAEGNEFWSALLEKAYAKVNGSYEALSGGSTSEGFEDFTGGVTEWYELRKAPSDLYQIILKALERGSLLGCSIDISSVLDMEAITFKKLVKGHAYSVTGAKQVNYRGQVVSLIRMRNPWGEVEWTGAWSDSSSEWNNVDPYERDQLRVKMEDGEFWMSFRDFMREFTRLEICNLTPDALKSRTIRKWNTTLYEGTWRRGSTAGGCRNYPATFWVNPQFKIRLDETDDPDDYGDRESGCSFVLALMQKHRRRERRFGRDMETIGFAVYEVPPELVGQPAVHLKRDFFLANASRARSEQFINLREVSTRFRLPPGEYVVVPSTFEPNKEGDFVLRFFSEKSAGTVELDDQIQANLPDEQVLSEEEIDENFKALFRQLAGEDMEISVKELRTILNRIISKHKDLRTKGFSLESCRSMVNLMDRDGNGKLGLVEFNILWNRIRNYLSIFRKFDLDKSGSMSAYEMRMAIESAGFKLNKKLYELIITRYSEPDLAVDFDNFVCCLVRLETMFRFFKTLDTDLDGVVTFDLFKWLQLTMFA

[2] = target: MOLT-4; experiment: Inhibitory concentration against MOLT-4 cells (human T-cell leukemia cell line)
[3] = target: T1, Calpain-1 catalytic subunit; experiment: Inhibitory activity against calpain-I
[4] = target: T1, Calpain-1 catalytic subunit; experiment: as §1; remark: listed apart in the source
[5] = target: T1, Calpain-1 catalytic subunit; experiment: Compound was evaluated for inhibitory activity towards human calpain I isomer 1

`CN1C(C(=O)N[C@H](C=O)Cc2ccccc2)Cc2cc(N3CCOCC3)ccc2S1(=O)=O` (stereo partly specified) was tested. Which IC50 [1] did it give?
The IC50 was 500 nM.

What about the IC50 [2] of the same compound?
Its IC50 is 4100 nM.

With `CN1C(C(=O)N[C@H](C=O)Cc2ccccc2)Cc2cc(Cl)ccc2S1(=O)=O` (stereo partly specified) as the compound, how does the IC50 [2] read?
The IC50 was 2200 nM.

With `CS(=O)(=O)NC(COCc1ccccc1)C(=O)N[C@H](C=O)Cc1ccccc1` (stereo partly specified) as the compound, how does the IC50 [3] read?
Its IC50 is 11 nM.

With `COC1=C(C(=O)N[C@H](C=O)Cc2ccccc2)N(C)S(=O)(=O)c2ccccc21` as the compound, how does the IC50 [2] read?
Its IC50 is 3200 nM.

What does the source list for `CC(C)CN1C(C(=O)N[C@H](C=O)Cc2ccccc2)Cc2cc(Cl)ccc2S1(=O)=O` (stereo partly specified)?
IC50 [1]: 200 nM; IC50 [4]: 200 nM

Which IC50 [5] does the source give for `O=C[C@H](Cc1ccccc1)NC(=O)C1Cc2ccccc2C(=O)N1` (stereo partly specified) here?
Its IC50 is roughly 5000 nM.

How did the IC50 [1] turn out when `COc1cc2c(cc1OC)S(=O)(=O)NC(C(=O)N[C@H](C=O)Cc1ccccc1)C2` (stereo partly specified) was run?
Its IC50 is 800 nM.

And the IC50 [4]?
Its IC50 is 700 nM.

Which IC50 [2] does the source give for `CN1C(C(=O)N[C@H](C=O)Cc2ccccc2)=Cc2cc3c(cc2S1(=O)=O)OCCO3` here?
Its IC50 is 900 nM.

For `CN1C(=O)c2ccccc2CC1C(=O)N[C@H](C=O)Cc1ccccc1` (stereo partly specified), which IC50 [5] is on record?
Its IC50 is 85 nM.

What about the IC50 [1] of the same compound?
The IC50 was roughly 1000 nM.

Which IC50 [1] does the source give for `COc1cc2c(cc1OC)S(=O)(=O)N(Cc1ccccc1)C(C(=O)N[C@H](C=O)Cc1ccccc1)C2` (stereo partly specified) here?
The IC50 was 1000 nM.

`COc1cc2c(cc1OC)S(=O)(=O)N(C)C(C(=O)N[C@H](C=O)Cc1ccccc1)C2` (stereo partly specified) was tested. Which IC50 [2] did it give?
The IC50 was 1900 nM.

For `CN1C(C(=O)N[C@H](C=O)CCCCNS(=O)(=O)c2ccccc2)Cc2cc3c(cc2S1(=O)=O)OCCO3` (stereo partly specified), which IC50 [2] is on record?
Its IC50 is 1800 nM.

Which IC50 [2] does the source give for `CN1C(C(=O)N[C@H](C=O)Cc2ccccc2)Cc2ccccc2S1(=O)=O` (stereo partly specified) here?
Its IC50 is 1700 nM.

How did the IC50 [3] turn out when `O=C[C@H](Cc1ccccc1)NC(=O)C(Cc1ccccc1)NS(=O)(=O)c1ccccc1` (stereo partly specified) was run?
Its IC50 is 20 nM.

How did the IC50 [2] turn out when `CC(C)N1C(C(=O)N[C@H](C=O)Cc2ccccc2)Cc2cc3c(cc2S1(=O)=O)OCCO3` (mixture of isomers) was run?
Its IC50 is 2600 nM.

For `CN1C(C(=O)N[C@H](C=O)Cc2ccccc2)Cc2cc3c(cc2S1(=O)=O)OCCO3` (mixture of isomers), which IC50 [2] is on record?
Its IC50 is 2000 nM.

How did the IC50 [2] turn out when `COc1cc2c(cc1OC)S(=O)(=O)OC(C(=O)N[C@H](C=O)Cc1ccccc1)C2` (mixture of isomers) was run?
The IC50 was 2200 nM.
